≈ marks a conversion by molar mass, not a printed value.
Key:
Helicobacter pyroli = test: AHP: Antibacterial Activity Test Against Helicobacter pyroli; assay type: cell-based, Helicobacter pyroli NCTC 11637; conditions: for MIC: Helicobacter, NCTC11637, 168 h, H. pyroli NCTC 11637, agar dilution, 7 days, read-out: AHP: minimum inhibitory concentration (MIC)
Description: AHP: Antibacterial […] Against Helicobacter pyroli i)Meaning The minimum inhibitory concentration (MIC) against Helicobacter pyroli (microaerophilic gram-negative bacterium which is supposed to deeply involve in pathogenesis, relapse, and recrudescence of ulcer, referred to as "HP" in the following) is measured so as to find out compounds which have antimicrobial activity against Helicobacter pyroli. ii)Method MICs were determined by the agar dilution method. […] Grown colonies were transfered to the same plate and cultured for 3 days under the same condition. […] A 1,000 μg/ml solution of the sample compound containing DMSO not more than 25% was […] diluted 2-fold in sterile purified water. 100 μl volume from each dilution was mixed thoroughly with 900 μl of brucella agar supplemented with 5% horse blood and solidified in a 24 well micro plate. 10 μl of the bacterial suspension (about 10^3 cfu) was inoculated on this plate and cultured for 7 days under the same condition as that of preculture.

gastric mucosa = test: PD: Gastric Mucosal Integrity Test; assay type: in vivo, rat (male Crj:SD); conditions: rat, 100 mg/kg into ex vivo chamber, 60 minutes
Description: PD: Gastric Mucosal Integrity Test
In this case, since the sample compound has a necrotizing effect, it is inappropriate as an anti-ulcer medicament.
Therefore, the gastric mucosal potential difference (PD), which reflects the integrity of the gastric mucosa, is measured so as to confirm that the sample compound has no damasing effect on gastric mucosa, which is toxicity at gastric mucosal level.
Male Crj:SD rats (7 to 8-week-old) was fasted overnight, but allowed free access to water, and then, under urethane anesthesia (1.25 g/kg, i.p.), fixed to a cork board on its back. The abdomen of each rat was incised, and a small incision was made in the forestomach. Then, the inside of the stomach was washed with physiological saline heated at 37° C. From the forestomach, along the greater curvature thereof, the stomach was incised without damaging blood vessels. After the height of the cork board was adjusted on a jack, the stomach was mounted on ex vivo chamber. The area of the gastric mucosa exposed to the inside of this chamber was 2.5 cm^2. The inside of the chamber was perfused with physiological saline warmed at 37° C. by micro tube pump. By using an agar bridge containing 3M KCl, the potential difference between the chamber and the abdominal cavity was measured by a PD meter. Here, the rectal temperature was measured to control the body temperature during the experiment. After the PD was sufficiently stabilized, the perfusate was stopped and then 100 mg/10 ml/kg of the sample compound dissolved or suspended in an aqueous solution of 0.5% sodium carboxymethyl cellulose or 0.05% Tween 80 were administered into the chamber, while PD was recorded for 60 minutes. To a control, the vehicle was administered.
The change in PD during 60 minutes after the administration of 100 mg/kg of the sample compound was collectively studied and, with reference to the positive control, classified into 5 levels as follows:
5: Same as the control with no recognizable damage at all.
3: Though a weak decrease in PD and a possibility of a weak mucosal damage is recognized, there is no substantial problem.
2: Medium degree of decrease in PD is found and a mucosal damage is recognized.
1: Heavy degree of decrease in PD is found and a remarkable mucosal damage is recognized.

[1] = test system: gastric corpus mucosa cells; test: MTT: Cell Damaging and Protecting Effect Test; assay type: cell-based, rabbit (male Japanese White); conditions: final concentration 10^-4 M, 4 hours; smaller value is better; 100 µM
Text: MTT: Cell Damaging and Protecting Effect Test
It is confirmed that there is no toxicity in cell level. Those having a toxicity in cell level are inappropriate as an anti-ulcer drug.
A male Japanese White rabbit (2.5 to 3 kg) was anesthetized to death by Nembutal™ and, immediately thereafter, its stomach was removed. The greater curvature of the stomach was incised so as to remove the stomach contents therefrom. After the mucosal surface was washed with HBSS (Hanks' Balanced Salt Solution), the stomach in ice-cooled HBSS was transferred to a laboratory. Then, after the pyloric antrum was removed, the gastric corpus mucosa was separated by a spatula and then minced into 2 to 3 mm^3 pieces in BME (Basal Medium Eagle). Thereafter, these pieces were shaken at 120 to 130 cycles/minute for 15 minutes at 37° C. in BME 60ml containig 280 U/ml of dispase and 30 to 50 U/ml of collagenase. Here, the concentration of collagenase was appropriately changed for each lot in view of the state of cells. The pieces were washed twice with EBSS (Earle's Balanced Salt Solution) containing 1 mM of EDTA and then shaken in MEM (Minimum Essential Medium) containing 1 mM of EDTA at 37° C. for 5 minutes. Subsequently, they were shaken in the dispase and collagenase having the same concentrations as those mentioned above for 15 minutes so as to remove the supernatant and then further shaken at 37° C. for 50 to 60 minutes at 120 to 130 cycles/minute. Then, after being washed twice with HBSS, Ham F12 containing 2% of Ultrocer G™ was used to attain the concentration of 1×10^6 cells/ml. Thus formed suspension was dispensed in each well of a 96-well plate by 200 μl. The plate was incubated in the atmosphere composed of 5% CO2 and 95% air at 37° C. for three days so as to attain a confluent state and then subjected to MTT assay.
The sample compound was dissolved in DMSO so as to attain a concentration of 10^-2 M and then diluted with HBSS containing 2% of Ultrocer G™ so as to attain a final concentration of 10^-4 M. To each group, which 8 wells were used for, 10 μl of MTT reagent were added immediately after 100 μl of the medium in each well were exchanged for same volume of the resulting solution of the sample compound. After being incubated in an atmosphere composed of 5% CO2 and 95% air at 37° C. for 4 hours, thus formed solution was centrifuged and then its supernatant was discarded. Subsequently, 100 μl of 100% ethanol were added to the residue so as to dissolve MTT formazan. Then, the absorbance (OD: 570 to 630) was measured by a microplate reader. This method utilizes a phenomenon in which MTT is changed to MTT formazan only by mitochondria of living cells so as to change color.
The cell damaging or cell protecting effect of the sample compound at the final concentration of 10^-4 M was expressed as cell damaging rate (%) as follows:
cell damaging rate (%)=[1-(absorbance in sample group/absorbance in control group)]×100
Accordingly, the smaller value is better in the cell damaging rate.

| SMILES | MIC (Helicobacter pyroli) | PD: change in gastric mucosal potential difference, level (gastric mucosa) | MTT: cell damaging rate [1] | antibacterial activity against Helicobacter pyroli (in words) (Helicobacter pyroli) |
| --- | --- | --- | --- | --- |
| CC(C)Cc1cc(C(=O)N2CCN(CC(C)C)CC2)ccc1OCc1ccccc1F [Example 18, 1-[4-(2-fluorobenzyloxy)-3-isobutylbenzoyl]-4-isobutylpiperazine] | 12.5 µg/mL (≈ 29.3 µM) | 3 | -33% | – |
| CC(C)Cc1cc(C(=O)N2CCN(CC(C)C)CC2)ccc1OCc1ccc(F)cc1 [Example 21, 1-[4-(4-fluorobenzyloxy)-3-isobutylbenzoyl]-4-isobutylpiperazine] | – | 5 | -65% | improved |
| CC(C)Cc1cc(C(=O)N2CCN(CC(C)C)CC2)ccc1OCc1ccc(F)cc1.Cl [Example 22, 1-[4-(4-fluorobenzyloxy)-3-isobutylbenzoyl]-4-isobutylpiperazine hydrochloride] | 12.5 µg/mL | 5 | -4% | improved |

From patent US5756505A, “N-acylpiperazine derivative, antibacterial drug and anti-ulcer drug” (Shiseido Co., Ltd., priority 1995, dated 1998)
